According to patent US20070112053A1, “Pharmaceutical compositions and methods using temozolomide and a protein kinase inhibitor” (priority 2005, published 2007):

Test system: U87MG (glioblastoma) xenograft tumors
Experiment: U87MG glioblastoma xenograft tumor growth in nude mice
Type: in vivo
Conditions: for inhibition of U87MG glioblastoma xenograft tumor growth: TMZ alone, ip Day 1-5
Method: The following human glioblastoma xenograft model may be employed to ascertain the efficacy of the formulations and methods described herein. Human glioblastoma cell U87MG are inoculated subcutaneously into female nude mice (age 4-6 wks). Xenograft tumor growth is followed by measuring the tumor size using a caliper. Once tumor size reaches about 100 mm3 (average), mice carrying the xenograft tumors are grouped and treated with different doses of the combination of TMZ and a PKC inhibitor (e.g., enzastaurin). Likewise, human glioblastoma cell U373 may be used to establish a xenograft model.
The combination of TMZ and a PKC inhibitor (e.g., enzastaurin) for treating a cell proliferative disorder was examined using a glioblastoma xenograft model. In particular, the glioblastoma model U87MG was used to evaluate the efficacy of PKC inhibitor enzataurin as a single agent compared to TMZ (Temodar®), a chemotherapeutic drug clinically approved for treating brain tumor, as a single agent. In addition, this study looked at the efficacy of the combination of TMZ with enzastaurin in comparison to the efficacy with either agent alone.
In brief, nude mice were inoculated with U87-MG glioblastoma cells and the resultant tumors treated with control, or various concentrations of TMZ, enzastaurin, or a combination of both TMZ and enzastaurin. More specifically, 150 female nude mice (strain NU/NU), aged 5-7 weeks old were purchased from Charles River Laboratory. Four million glioblastoma cells U87-MG were mixed 1:1 (volume:volume) with Matrigel (Cat. #354234, BD Biosciences) on ice and mixtures were inoculated subcutaneously to the flank of each mouse. Dosing was initiated when the tumors reached an average size of 90 mm^3. The dosing volume was 0.2 mL. Tumor size and body weight was measured two to three times per week. […] Note that there were 10 nude mice per dosing regimen.

Cn1nnc2c(C(N)=O)ncn2c1=O [TMZ, 3,4-dihydro-3-methyl-4-oxoimidazo[5,1-d]-as-tetazine-8-carboxamide]
inhibition of U87MG glioblastoma xenograft tumor growth (5 mpk qd): 98% | inhibition of U87MG glioblastoma xenograft tumor growth (10 mpk qd): 102% | inhibition of U87MG glioblastoma xenograft tumor growth (20 mpk qd): 103%

Cn1cc(C2=C(c3cn(C4CCN(Cc5ccccn5)CC4)c4ccccc34)C(=O)NC2=O)c2ccccc21 [enzastaurin]
effect on tumor growth as single agent (enzastaurin alone, 37.5 or 75 mpk qd, po): little effect on tumor growth
